Series [1] concerns CWR22rv-1 cells. Put plainly: CWR22rv-1 prostate cancer cell death (propidium iodide, FACS). The series is classed as cell-based, human. The procedure:
CWR22Rv1 cells (ATCC, Manassas, Va.) were seeded in 6 well tissue culture plate at density of 300,000 cells/well and maintained in RPMI 1640 (Mediatech, Herndon, Va.) containing 10% fetal bovine serum, 2.5 mM L-glutamine, and penicillin-streptomycin (100 IU/ml and 100 μg/ml, respectively) at 37° C. with 5% CO2. Cells were then switched to serum free RPMI media overnight prior to drug treatment. Compounds were dissolved in 100% dimethylsulfoxide (DMSO) and diluted to the desired concentrations in serum free RPMI. Cells were treated with indicated drug concentrations (in triplicate per treatment point) for 24, 48, 72 hour. After treatment, cells were harvested by trypsinization and fixed in 70% ethanol. The fixed cells were then stained with propidium iodide (50 μg/ml) after treatment with RNase (5 μg/ml). The stained cells were analyzed for DNA content using FACSsort (Becton Dickinson). Cell cycle fractions were quantified with Cell Quest (Becton Dickinson) or ModFit LT (Verity Software House).

The test system of series [2] is human prostate xenograft PC3. Put plainly: PC3 xenograft study. The series is classed as in vivo. To be noted: mice bearing PC3 xenografts; 10 mg/kg ip every other day. The procedure: Intraperitoneally (ip) 10 mg/kg of racemic (±)-1 and each enantiomer was administered in mice bearing PC3 xenografts (FIG. 16). This dose was administered qd every other day for 24 days and effects on reducing the tumor volume were measured.
PC-3 cell line (ATCC, Manassas, Va.) was cultured in RPMI-1640 with L-glutamine (Mediatech Inc., Herdon, Va.) containing 5% fetal bovine serum (FBS), 2.5 mM L-glutamine at 37° C. with 5% CO2.
Male athymic balbc/nude mice (18-22 g) were injected with 3×106 (0.3 mL) of the human prostate cancer cells (PC3). The human prostate cancer cells were injected in the subcutaneous tissue of the right axillary region of the mice. One week after the injection, the mice were randomly sorted into four groups with 6 mice per group. […] The stock of each compound was added to polyethylene glycol 400 (PEG) (Hampton) and PBS in a 1:1 ratio. The test concentrations were obtained by diluting with PEG/PBS. The tumor-bearing mice received an intraperitoneal injection (IP) with either 10 mg/kg of (±)-1, R-(−)-1 or S-(+)-1 or vehicle control respectively once every other day for 4 weeks. At the same time, the tumor size of each mouse was measured by caliper and calculated by the formula: Length×width×height/2.

In series [3] the target is T1, hNav1.7 (Homo sapiens, UniProt Q15858).
T1 construct: expressed in transfected cells; host or cells: HEK293
Put plainly: Fluorescent (FRET) based sodium channel assay, hNav1.7. As to conditions: HEK293 stably transfected with hNav1.7, 20 μM veratridine, read-out: hNav 1.7 IC50. The series is classed as cell-based. How it is done: Two isoforms of the channel were examined: hNav1.5, a cardiac sodium channel associated with arrhythmias, and hNav1.7, an isoform found in the peripheral nervous system.
HEK293 cells stably transfected with either hNav1.5 or hNav1.7 were plated at approximately 11,000-20,000 cells/well in flat bottom, poly-D-lysine coated black-wall, clear-bottom, 384-well plates (Becton Dickinson, Bedford, Mass.), and incubated overnight at 37° C. in a 10% CO2 atmosphere in growth medium. Cells were washed with 0.03 mL of Dulbecco's phosphate buffered saline (D-PBS) containing calcium and magnesium. Cells were then incubated with 0.025 mL of a solution containing 10 μM CC2-DMPE and 0.02% pluronic acid in D-PBS with calcium and magnesium; supplemented with 10 mM glucose, and 10 mM Hepes-NaOH, pH 7.4. […] Afterwards, cells were incubated in the dark at 25° C. for 45 min with 0.025 mL of a solution containing 5 μM DiSBAC2(3) in VIPR-S, in the absence or presence of test compound. At the end of the incubation period, the plate was placed in a FLIPR TETRA instrument (MDS Analytical Technologies, Sunnyvale Calif.), illuminated at 390-420 nm, and fluorescence emissions were recorded at approximately 1 Hz at 460 and 580 nm. Following a 7 second baseline reading, 0.025 mL of VIPR-S containing 10 μM veratridine for Nav1.5 or 20 μM veratridine for Nav1.7 was added to each well, and the emissions of both dyes were recorded for an additional 33 seconds. The change in fluorescence resonance energy transfer (FRET) ratio (F/F0) was calculated as: F/F0=((A460/A580/(I460/I580) where A and I represent the readings after or before addition of veratridine, respectively, at the indicated wavelengths. For I, the readings from 2-5 seconds were averaged, and for A, readings from 3 seconds after the signal had reached a plateau level (usually within 30-40 s) were also averaged. Triplicate measurements were performed for each experimental condition and the data were averaged.

Series [4] has as its target T2, hERG potassium channels (Homo sapiens, UniProt Q12809).
T2 construct: expressed in transfected cells; host or cells: HEK-293 (membranes)
Briefly: hERG binding assay ([35S]MK-499 displacement). As to conditions: [35S]MK-499, HEK-293 hERG membranes. The source says: All four compounds were also counter-screened for human ether-a-go-go-related gene (hERG) activity against the radio-ligand MK-0499. Blockade of hERG K^+ channels is widely regarded as the predominant cause of drug-induced QT prolongation. (Aronov, A J Med Chem. 2006 Nov. 16; 49(23):6917-21).
MK-499, a potent hERG blocker, was used in a ligand binding assay to evaluate the binding of test compounds to hERG potassium channels as previously described (Wang, J et al. Am J Physiol Heart Circ Physiol, 2003, 284: H256-H267).^2 Test compounds were incubated with 0.05 nM of radiolabeled MK-499 ([35S]MK-499; specific Activity=1,279,010 μCi/μmol) in an assay buffer solution (70 mM NaCl, 60 mM KCl, 10 mM HEPES/NaOH (pH 7.4), 2 mM MgCl2, 1 mM CaCl2) also containing membranes isolated from HEK-293 cells stably expressing hERG channels in 96 well polypropylene deep-well assay plates at room temperature (25° C.) for >90 min. Assay plates were rinsed three time with buffer (130 mM NaCl, 10 mM HEPES/NaOH (pH 7.4), 2 mM MgCl2, 1 mM CaCl2) and the solution transferred to a Packard FilterMate Universal Harvester apparatus and filtered using PerkinElmer UniFilter-96 GF/C 96-well white microplates pre-soaked with 0.3% BSA (10 mL/L of 30% BSA). Plates were dried overnight at 37° C., or for 2 hrs at 56° C. The bottom of the plates were sealed and 0.025 mL of Microscint 0 was added to each well. The plates were top sealed and counted for 2 min/well in a Packard TopCount Scintillation counter. Test compounds were evaluated in a five point titration format using half-log steps from 0.3 μM to 30 μM. […] Less than 5% of the added radioactivity was retained on the filters. Assays were performed in triplicate.

The conditions of series [5]: mouse, in vivo, ip.

Each structure is given as a SMILES string. pIC50: −log10 of the molar value.

T2 sequence (Q12809 whole entry): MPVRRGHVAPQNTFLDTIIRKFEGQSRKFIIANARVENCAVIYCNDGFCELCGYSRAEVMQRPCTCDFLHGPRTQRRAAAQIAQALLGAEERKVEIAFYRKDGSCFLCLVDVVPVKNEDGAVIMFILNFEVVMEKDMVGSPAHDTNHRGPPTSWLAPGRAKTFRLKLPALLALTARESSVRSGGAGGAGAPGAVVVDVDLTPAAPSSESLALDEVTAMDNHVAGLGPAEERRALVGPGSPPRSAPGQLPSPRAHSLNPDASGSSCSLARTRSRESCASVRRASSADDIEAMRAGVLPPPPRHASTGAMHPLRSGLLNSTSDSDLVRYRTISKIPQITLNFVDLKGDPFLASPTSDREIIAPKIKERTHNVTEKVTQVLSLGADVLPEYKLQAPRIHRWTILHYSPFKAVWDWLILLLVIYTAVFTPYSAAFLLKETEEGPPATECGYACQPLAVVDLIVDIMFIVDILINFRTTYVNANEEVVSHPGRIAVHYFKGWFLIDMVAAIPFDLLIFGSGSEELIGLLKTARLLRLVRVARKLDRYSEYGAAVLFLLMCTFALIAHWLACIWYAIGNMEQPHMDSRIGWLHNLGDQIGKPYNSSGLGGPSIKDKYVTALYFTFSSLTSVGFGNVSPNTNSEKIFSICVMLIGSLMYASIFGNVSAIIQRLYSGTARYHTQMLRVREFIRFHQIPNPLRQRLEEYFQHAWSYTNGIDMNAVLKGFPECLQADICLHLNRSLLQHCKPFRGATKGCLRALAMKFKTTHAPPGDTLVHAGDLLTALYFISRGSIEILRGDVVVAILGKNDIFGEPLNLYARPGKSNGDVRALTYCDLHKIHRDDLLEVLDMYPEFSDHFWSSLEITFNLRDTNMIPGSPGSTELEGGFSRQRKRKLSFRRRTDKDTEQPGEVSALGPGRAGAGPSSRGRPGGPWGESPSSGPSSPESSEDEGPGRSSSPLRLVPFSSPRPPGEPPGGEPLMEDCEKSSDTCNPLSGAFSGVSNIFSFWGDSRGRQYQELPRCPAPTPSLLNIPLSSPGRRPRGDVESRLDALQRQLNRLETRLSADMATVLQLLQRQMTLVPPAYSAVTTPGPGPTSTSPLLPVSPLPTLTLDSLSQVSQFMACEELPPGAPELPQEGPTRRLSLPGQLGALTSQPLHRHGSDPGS
T1 sequence (Q15858 whole entry): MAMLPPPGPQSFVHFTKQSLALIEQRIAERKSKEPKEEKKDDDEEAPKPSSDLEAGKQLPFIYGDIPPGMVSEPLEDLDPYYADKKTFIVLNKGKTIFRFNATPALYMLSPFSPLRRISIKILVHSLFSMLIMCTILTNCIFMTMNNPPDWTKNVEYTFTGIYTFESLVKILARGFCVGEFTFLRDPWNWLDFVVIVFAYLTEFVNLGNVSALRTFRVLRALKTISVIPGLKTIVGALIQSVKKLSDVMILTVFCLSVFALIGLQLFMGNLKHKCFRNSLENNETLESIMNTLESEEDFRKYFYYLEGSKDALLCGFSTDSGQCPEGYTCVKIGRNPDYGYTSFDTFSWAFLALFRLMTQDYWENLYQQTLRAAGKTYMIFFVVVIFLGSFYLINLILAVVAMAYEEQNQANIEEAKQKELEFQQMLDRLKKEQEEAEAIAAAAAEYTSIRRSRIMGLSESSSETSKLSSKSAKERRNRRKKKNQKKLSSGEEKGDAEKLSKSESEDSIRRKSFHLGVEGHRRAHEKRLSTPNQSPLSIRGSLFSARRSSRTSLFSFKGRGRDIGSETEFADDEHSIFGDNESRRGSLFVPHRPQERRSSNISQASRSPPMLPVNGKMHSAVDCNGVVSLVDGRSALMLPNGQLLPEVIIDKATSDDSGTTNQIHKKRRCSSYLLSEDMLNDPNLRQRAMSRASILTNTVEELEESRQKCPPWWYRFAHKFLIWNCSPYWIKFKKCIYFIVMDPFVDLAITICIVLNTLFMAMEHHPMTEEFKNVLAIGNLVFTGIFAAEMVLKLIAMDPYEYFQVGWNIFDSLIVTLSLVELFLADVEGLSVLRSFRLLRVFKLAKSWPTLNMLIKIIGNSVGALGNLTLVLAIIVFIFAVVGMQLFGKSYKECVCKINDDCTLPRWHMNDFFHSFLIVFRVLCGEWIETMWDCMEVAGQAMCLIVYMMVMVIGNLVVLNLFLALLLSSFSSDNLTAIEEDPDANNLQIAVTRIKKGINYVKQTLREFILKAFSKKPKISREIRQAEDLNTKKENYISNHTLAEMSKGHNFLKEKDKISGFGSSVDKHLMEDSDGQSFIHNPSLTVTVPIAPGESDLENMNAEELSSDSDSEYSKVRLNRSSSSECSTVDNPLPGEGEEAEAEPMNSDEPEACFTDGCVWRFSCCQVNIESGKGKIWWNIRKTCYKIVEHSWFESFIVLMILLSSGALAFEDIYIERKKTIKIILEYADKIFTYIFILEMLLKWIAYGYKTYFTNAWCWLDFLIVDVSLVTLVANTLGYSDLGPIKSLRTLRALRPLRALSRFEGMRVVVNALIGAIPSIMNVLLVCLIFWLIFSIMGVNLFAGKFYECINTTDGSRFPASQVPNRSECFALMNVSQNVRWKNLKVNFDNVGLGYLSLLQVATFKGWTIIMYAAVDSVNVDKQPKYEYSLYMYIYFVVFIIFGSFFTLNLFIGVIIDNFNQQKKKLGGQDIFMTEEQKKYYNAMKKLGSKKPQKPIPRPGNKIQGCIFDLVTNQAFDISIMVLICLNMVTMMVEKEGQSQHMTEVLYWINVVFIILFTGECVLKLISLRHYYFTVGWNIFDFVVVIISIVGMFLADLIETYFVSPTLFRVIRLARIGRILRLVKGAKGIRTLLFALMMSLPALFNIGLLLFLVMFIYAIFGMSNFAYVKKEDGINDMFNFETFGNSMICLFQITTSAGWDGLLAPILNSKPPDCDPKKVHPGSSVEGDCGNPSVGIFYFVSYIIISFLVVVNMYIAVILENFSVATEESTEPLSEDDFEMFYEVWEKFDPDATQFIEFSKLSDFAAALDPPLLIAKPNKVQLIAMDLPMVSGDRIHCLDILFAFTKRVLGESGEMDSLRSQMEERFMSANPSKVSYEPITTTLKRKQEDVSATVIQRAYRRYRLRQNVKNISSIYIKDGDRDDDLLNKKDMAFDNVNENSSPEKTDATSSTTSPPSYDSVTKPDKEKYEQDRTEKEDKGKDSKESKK

`CCCCCCCC(O)(C(N)=O)c1cccc(Cl)c1` (racemic) [(±)-1, 2-(3-chloro-phenyl)-2-hydroxy-nonanoic acid amide]: the “cell death of CWR22rv-1 cells” value is given as “marginal effects” in series [1] (25 μM, after 24 h) and 25% in series [1] (after 72 h). Moreover, the “decrease in tumor volume” value in series [2] is given as 62%. Further, the negative logarithm of the IC50 (pIC50) in series [3] is 5.74. The “% inhibition for hERG assay, 0.3 μM” value in series [4] (0.3 μM) is 15%. Also, the “% inhibition for hERG assay, 1 μM” value in series [4] (1 μM) is 17%. Moreover, the “% inhibition for hERG assay, 3 μM” value in series [4] (3 μM) came to 15%. Besides, the “% inhibition for hERG assay, 10 μM” value in series [4] (10 μM) came out at 51%. Further, the “% inhibition for hERG assay, 30 μM” value in series [4] (30 μM) came out at 78%. In series [5], the “acute rotorod toxicity observations” value is listed as “No deaths, spasms, respiratory disease was reported”.
